“Also recorded” adds a separate entry of the source.
B1: IL-1a: typical factor occurring in the peritumoral environment and inflammatory conditions (protein, UniProt P01583 113-271, looked up)
Interleukin-1 alpha: SAPFSFLSNVKYNFMRIIKYEFILNDALNQSIIRANDQYLTAAALHNLDEAVKFDMGAYKSSKDDAKITVILRISKTQLYVTAQDEDQPVLLKEMPEIPKTITGSETNLLFFWETHGTKNYFTSVAHPNLFIATKQDYWVCLAGGPPSITDFQILENQA

Key:
Type in all cases: cell-based, human
[1] = system: MDA-MB-231 cancer cells intravasating into microvessels; test: Cancer intravasation assay in microfluidic chip
Experimental: (§1) Human umbilical vein endothelial cells (HUVEC, Lonza) were cultured in endothelial cell growth medium (EGM-2, Lonza). Normal human lung fibroblasts (LF, Lonza) were cultured in fibroblast growth medium (FGM-2, Lonza). Human glioblastoma cells (U87MG, ATCC, Virginia) were cultured in DMEM medium supplemented with 10% fetal bovine serum (FBS), penicillin (100 U/ml) and streptomycin (100 U/ml). MDA-MA-231 cells were purchased from the ATCC (Manassas, Va.). MDA-MB-231 cells were transfected with a pEGFP plasmid, and cells were selected using 1 mg/ml G418 (A.G. scientific, Inc.). MDA-MA-231 GFP cells obtained from monoclones were incubated in RPMI1640 (WELGENE, Korea) supplemented with 10% fetal bovine serum, 1% penicillin/streptomycin (Gibco, BRL) and 250 μg/ml G418 (A.G. scientific, Inc.). […]
(§2) For the quantification of cancer angiogenesis, sprout area and the number of sprouts were manually quantified by using Image J. For quantification of cancer intravasation, the microvessels were stained with CD31 and fluorescence imaged, and cancer cells at the apical side of the microvessel were manually counted using the IMARIS software.
As a vessel to assess the transendothelial migration of MDA-MB-231 cancer cells, the microvessel obtained in the present invention was used. […] The number of cancer cells intravasated into the microvessels was manually counted. […]

VE-cadherin = VE-cadherin immunostaining of cell-cell junctions in microvessels; conditions: 5 ng/ml TNF-α-treated microvessels versus control microvessels (FIG. 5B)
Experimental: as §1, with “Inc.).” for “Inc.). MDA-MA-231 GFP cells obtained from monoclones were incubated in RPMI1640 (WELGENE, Korea) supplemented with 10% fetal bovine serum, 1% penicillin/streptomycin (Gibco, BRL) and 250 μg/ml G418 (A.G. scientific, Inc.).”
For microvascular DIC (Differential Interference Contrast Microscope) imaging, the Nikon AE31 microscope was used. […] Confocal images were analyzed using IMARIS software (Bitplane, Switzerland). For fluorescence imaging, FITC-dextran-injected samples were imaged using the IX81 inverted microscope (Olympus).
As a vessel to assess the transendothelial migration of MDA-MB-231 cancer cells, the microvessel obtained in the present invention was used. […] The number of cancer cells intravasated into the microvessels was manually counted. […] In addition, the effect of TNF-α on cancer cell intravasation was analyzed. the rate of intravasation with or without TNF-α treatment was compared (n=7 chips per condition). […]

[2] = system: blood vessels and pericytes (HUVEC-pericyte co-culture); test: Response of co-cultured blood vessels and pericytes to added factors; conditions: factor added to blood vessel-pericyte co-culture of Example 5; compared to control group (FIG. 13)
microvessels (HUVEC) = test: Microvessel permeability coefficient by time-lapse FITC-dextran imaging; conditions: 5 ng/ml TNF-α over 24 h
Experimental: as §1, with “Inc.).” for “Inc.). MDA-MA-231 GFP cells obtained from monoclones were incubated in RPMI1640 (WELGENE, Korea) supplemented with 10% fetal bovine serum, 1% penicillin/streptomycin (Gibco, BRL) and 250 μg/ml G418 (A.G. scientific, Inc.).”
To quantify the success rate of the smooth and continuous boundary of microvessels, the length of the vessel boundary was measured, and compared with the straight-line length of the blood vessel channel along the microvessel by use of image J. When the boundary length value was within ±10% of the linear length of the vascular channel, the chip was regarded as success. […] The acquired time-lapse image was analyzed using Image J, and the permeability coefficient was calculated using Equation 1 below: […]
The present inventors introduced 20 kDa FITC-dextran solution into the microvessel to verify the patency of the lumen, and visualized the behavior of the lumen using fluorescence microscopy. […] The present inventors analyzed the junctions by fluorescent immunostaining for claudin-5 and ZO-1 (FIGS. 3C and 3D). […]

[3] = system: HUVEC microvessels with U87MG cells; test: Cancer angiogenesis assay in microfluidic chip (angiogenic sprouting from microvessels induced by U87MG cells); conditions: bevacizumab 500 μg/ml
Experimental: Human umbilical vein endothelial cells (HUVEC, Lonza) were cultured in endothelial cell growth medium (EGM-2, Lonza). Normal human lung fibroblasts (LF, Lonza) were cultured in fibroblast growth medium (FGM-2, Lonza). Human glioblastoma cells (U87MG, ATCC, Virginia) were cultured in DMEM medium supplemented with 10% fetal bovine serum (FBS), penicillin (100 U/ml) and streptomycin (100 U/ml). MDA-MA-231 cells were purchased from the ATCC (Manassas, Va.). MDA-MB-231 cells were transfected with a pEGFP plasmid, and cells were selected using 1 mg/ml G418 (A.G. scientific, Inc.). MDA-MA-231 GFP cells obtained from monoclones were incubated in RPMI1640 (WELGENE, Korea) supplemented with 10% fetal bovine serum, 1% penicillin/streptomycin (Gibco, BRL) and 250 μg/ml G418 (A.G. scientific, Inc.). All cells were incubated in a humidified incubator at 37° C. under 5% CO2. For immunostaining, endothelial cells were imaged using mouse monoclonal antibodies specific for human ZO-1 (Alexa Fluor594, clone ZO1-1A12, molecular probe), CD31 ([…], clone WM59, Biolegends), VE-cadherin (eBioscience) and claudin-5 (Invitrogen), and the nucleus was stained with Hoechst 33342 (molecular probe). Bevacizumab (Avastin, Genentech) was diluted to 500 μg/ml, and microvessels introduced with cancer were treated with the dilution in cancer angiogenesis experiments. Recombinant human TNF-alpha (PetroTech) was diluted to 5 ng/ml, and microvessels were treated with the dilution at 24 hours before introduction of cancer. […]
as §2
The present inventors analyzed the angiogenic potential of cancer cells by using the microvessels having a smooth vessel wall. […]

[4] = 3 days after introduction of U87MG cells, versus U87MG without bevacizumab

| Molecule | rate of cancer intravasation relative to control ([1]; 5 ng/ml TNF-α 24 hours before introduction of MDA-MB-231 cells, n=7 chips per condition) [fold] | rate of cancer intravasation (in words) ([1]; TNF-α-treated microvessels compared with control experiment, p<0.0005) | VE-cadherin junction morphology (VE-cadherin) | response of pericytes and blood vessels [2] | permeability of TNF-α-treated microvessels (microvessels (HUVEC); mean±standard error, n=5 chips) | permeability relative to normal condition (microvessels (HUVEC); versus normal condition) [fold] | coverage area of sprouts [3, 4] | number of sprouts [3, 4] | microvascular sprouts / vessel boundary in micrographs ([3]; microscopic images 3 days after injection of cancer cells (FIG. 4A)) |
| --- | --- | --- | --- | --- | --- | --- | --- | --- | --- |
| TNF-α | 3 | very high rate of cancer intravasation | disrupted and pleated form; also recorded: disrupted continuity and wrinkled morphology | pericytes sprouted out from the blood vessels and formed many filopodia | 2.22±0.67×10^−6 cm/s | 1.4 |  |  |  |
| bevacizumab: anti-vascular endothelial growth factor (anti-VEGF) antibody, Avastin, Genentech |  |  |  |  |  |  | significantly reduced; also recorded: drastically decreasing | significantly reduced; also recorded: drastically decreasing | greatly reduced; also recorded: flat boundary without angiogenic sprouts |
| B1 |  |  |  | pericytes sprouted out from the blood vessels and formed many filopodia |  |  |  |  |  |

Reference: patent US20190017999A1, “IN VITRO SKIN IMMUNE SYSTEM SIMULATION SYSTEM” (Seoul National University R&DB Foudation, priority 2015, published 2019)
